This note sets out measurements from patent US20160002267A1, “BENZYL-SUBSTITUTED PYRAZOLOPYRIDINES AND USE THEREOF” (BAYER PHARMA AKTIENGESELLSCHAFT, priority 2013, published 2016).

One data set concerns the target T1, guanylate cyclase (Rattus norvegicus, UniProt P19686+P20595).
T1 construct: expressed in transfected cells; host or cells: recombinant reporter cell line
T1 sequence (P20595 1-619): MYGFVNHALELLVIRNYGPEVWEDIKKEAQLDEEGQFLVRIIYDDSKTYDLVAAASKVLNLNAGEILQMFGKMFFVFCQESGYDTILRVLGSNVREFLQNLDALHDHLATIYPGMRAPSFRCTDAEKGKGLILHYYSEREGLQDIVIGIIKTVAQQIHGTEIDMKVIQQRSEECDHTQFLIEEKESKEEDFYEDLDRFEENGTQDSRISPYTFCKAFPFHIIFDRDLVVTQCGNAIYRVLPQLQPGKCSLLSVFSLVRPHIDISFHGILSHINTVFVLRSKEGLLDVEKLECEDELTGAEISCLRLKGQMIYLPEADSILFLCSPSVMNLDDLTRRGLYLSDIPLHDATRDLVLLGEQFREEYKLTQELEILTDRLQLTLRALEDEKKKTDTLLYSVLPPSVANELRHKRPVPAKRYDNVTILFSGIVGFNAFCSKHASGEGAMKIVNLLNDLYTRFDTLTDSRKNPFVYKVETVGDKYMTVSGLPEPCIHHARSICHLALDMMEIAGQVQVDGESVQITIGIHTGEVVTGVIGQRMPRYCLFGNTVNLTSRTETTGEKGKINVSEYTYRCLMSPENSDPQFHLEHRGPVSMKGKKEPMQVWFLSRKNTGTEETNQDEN
T1 sequence (P19686 1-690): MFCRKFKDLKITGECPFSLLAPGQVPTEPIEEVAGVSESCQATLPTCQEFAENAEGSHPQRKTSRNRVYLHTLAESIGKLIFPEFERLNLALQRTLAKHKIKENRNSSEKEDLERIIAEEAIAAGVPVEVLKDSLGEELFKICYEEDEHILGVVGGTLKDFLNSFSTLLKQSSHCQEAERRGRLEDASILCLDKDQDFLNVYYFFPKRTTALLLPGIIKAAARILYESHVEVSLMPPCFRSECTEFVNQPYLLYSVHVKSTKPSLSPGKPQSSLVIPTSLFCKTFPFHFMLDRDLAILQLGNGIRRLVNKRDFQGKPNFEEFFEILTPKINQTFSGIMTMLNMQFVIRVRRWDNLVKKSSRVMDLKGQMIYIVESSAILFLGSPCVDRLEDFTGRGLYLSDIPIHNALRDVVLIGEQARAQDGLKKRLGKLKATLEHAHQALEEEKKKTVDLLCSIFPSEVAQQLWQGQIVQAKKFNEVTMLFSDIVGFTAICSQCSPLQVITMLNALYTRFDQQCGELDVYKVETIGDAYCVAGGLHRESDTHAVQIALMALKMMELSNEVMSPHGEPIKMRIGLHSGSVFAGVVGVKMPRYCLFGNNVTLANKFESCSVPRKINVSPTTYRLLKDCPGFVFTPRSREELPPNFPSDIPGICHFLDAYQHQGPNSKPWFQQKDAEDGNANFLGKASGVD
As to the kind of experiment: Effect on a recombinant guanylate cyclase reporter cell line. The format is cell-based. As for the experimental part:
The cellular activity of the compounds according to the invention is determined using a recombinant guanylate cyclase reporter cell line, as described in F. Wunder et al., Anal. Biochem. 339, 104-112 (2005).

Data set [1] in a line: Determination of pharmacokinetic parameters following intravenous and oral administration. It is filed as in vivo, rat. As to conditions: rats, intravenous administration of 0.3 mg/kg and peroral administration of 1 mg/kg. The method, then: The pharmacokinetic parameters of the compounds of the formula (I) according to the invention are determined in male CD-1 mice, male Wistar rats and female beagles. Intravenous administration is via a formulation of species-specific plasma/DMSO in the case of mice and rats and via a water/PEG400/ethanol formulation in the case of dogs. For all species, oral administration of the dissolved substance via gavage is carried out based on a water/PEG400/ethanol formulation. The removal of blood from rats is simplified by inserting a silicone catheter into the right Vena jugularis externa prior to substance administration. The surgical intervention takes place at least one day prior to the experiment with isofluran anesthesia and administration of an analgetic (atropine/rimadyl (3/1) 0.1 ml s.c.). The removal of blood (generally more than 10 times) takes place in a time window which contains terminal times of at least 24 to a maximum of 72 hours after administration of the substance. The blood is removed into heparinized tubes. The blood plasma is then obtained by centrifugation; if required, it can be stored at −20° C. until further processing.
An internal standard (this can also be a chemically unrelated substance) is added to the samples of the compounds of the formula (I) according to the invention, calibration samples and qualifiers, and the protein is precipitated using excess acetonitrile. After addition of a buffer solution, which is adapted to the LC conditions, and subsequent vortexing, the mixture is centrifuged at 1000 g. The supernatant is examined by LC-MS/MS using C18-reversed-phase columns and variable mobile phase mixtures. The substances are quantified by peak heights or areas using extracted ion chromatograms of specific selected ion monitoring experiments.
The plasma concentration/time plots determined are used to calculate the pharmacokinetic parameters such as AUC (Area Under the Curve), Cmax, t1/2 (terminal half life), F (bioavailability), MRT (mean residence time) and CL (clearance), using a validated pharmacokinetic calculation program.
Since the substance quantification is performed in plasma, it is necessary to determine the blood/plasma distribution of the substance in order to be able to adjust the pharmacokinetic parameters correspondingly. For this purpose, a defined amount of substance is incubated in heparinized whole blood of the species in question in a rocking roller mixer for 20 min. After centrifugation at 1000 g, the plasma concentration is measured (by means of LC-MS/MS; see above) and determined by calculating the quotient of the Cblood/Cplasma values.

The structures appear in SMILES notation.

The MRT is a mean duration of stay, worked out from the concentration-time curve. In general, half-life refers to how long it takes for the measured level to halve. Higher therefore signals slow decline. As for `CC1(C(F)(F)F)C(=O)Nc2nc(-c3nn(Cc4ccccc4F)c4ncc(F)cc34)nc(NCCC(F)(F)F)c21` (single isomer, unassigned) [Example 1-1, 2-[5-Fluoro-1-(2-fluorobenzyl)-1H-pyrazolo[3,4-b]pyridin-3-yl]-5-methyl-5-(trifluoromethyl)-4-[(3,3,3-trifluoropropyl)amino]-5,7-dihydro-6H-pyrrolo[2,3-d]pyrimidin-6-one], the “MEC (minimum effective concentration)” value at guanylate cyclase was determined as 0.1 µM. In data set [1] (male, Wistar, rat, plasma), this compound had a mean residence time MRT of 6.4 h and a half-life of 7.8 h. In data set [1], this compound came in with an AUCnorm of 0.83 kg·h/L, a CLblood of 23.7 mL/min/kg and an F of 39.0%.
